ChEMBL document CHEMBL1126431, “The effect of N-acyl substituents on the stability of monocyclic -lactam inhibitors of human leukocyte elastase” (Bioorg Med Chem Lett, 1992)
pKi: −log10 of the molar value.

Tests used:
[1] = Half-life period was determined, by hydrolyzing under mild conditions (pH = 8.0, 25 degrees Celsius); assay type: ADME
Neutrophil elastase = molecular target: T1, Neutrophil elastase (Homo sapiens, UniProt P08246); assay: Concentration required for inhibition of human leukocyte elastase (HLE)
T1 sequence (P08246 whole entry): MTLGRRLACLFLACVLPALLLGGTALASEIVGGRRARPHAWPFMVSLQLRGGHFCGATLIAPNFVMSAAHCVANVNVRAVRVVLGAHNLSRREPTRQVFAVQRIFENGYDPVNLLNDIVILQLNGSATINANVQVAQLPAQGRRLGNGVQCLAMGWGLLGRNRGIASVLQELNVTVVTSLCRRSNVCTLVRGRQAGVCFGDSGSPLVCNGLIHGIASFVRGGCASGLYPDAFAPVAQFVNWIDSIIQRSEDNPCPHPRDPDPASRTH

[2] = molecular target: T2, Neutrophil elastase (Homo sapiens) (UniProt P08246); assay: Human leukocyte elastase (HLE) inhibitory activity is reported as kinetic constant (kobs/[I] - time dependent inhibition)
T2 sequence (whole entry): T1 sequence (P08246 whole entry)

Row | SMILES | half-life [1] | pKi (Neutrophil elastase) | k obs / 1 [2]
1 | CC[C@@H]1C(=O)N[C@H]1Oc1ccc(C(=O)O)cc1 | ~32 h | 3.54 | –
2 | CC[C@@H]1C(=O)N(C(=O)NC)[C@H]1Oc1ccc(C(=O)O)cc1 | – | 4.78 | –
3 | CC[C@@H]1C(=O)N(C(C)=O)[C@H]1Oc1ccc(C(=O)O)cc1 | ~9 h | – | 6680 M⁻¹ s⁻¹
4 | CCOC(=O)N1C(=O)[C@@H](CC)[C@@H]1Oc1ccc(C(=O)O)cc1 | – | – | 6350 M⁻¹ s⁻¹
5 | CC[C@@H]1C(=O)N(C(=O)NCc2ccccc2)[C@H]1Oc1ccc(C(=O)O)cc1 | – | – | 2480 M⁻¹ s⁻¹
6 | CC[C@@H]1C(=O)N(C(C)=O)[C@H]1OC(C)=O (racemic) | ~2 h | – | –
